Results on 1 substance are retold here after patent US7112339B1, “Compositions for controlled release of a biologically active agent, and the preparation thereof” (DelSiTech Oy, priority 1999, dated 2006).

For this test, the system named is Factor Xa. As to the kind of experiment: Factor Xa assay (HEPRN) of heparin biological activity. Type of test: biochemical. The protocol:
The silica sol loaded with heparin was prepared by a two step sol-gel process using acid as a catalyst (Ellerby et al. 1992). The following reagents were used, tetraethoxysilane (TEOS) (Aldrich), deionized water, nitric acid (HNO3) (Merck), acetic acid (CH3COOH) (Merck), ammonium hydroxide (NH4OH) (Merck)) and heparin sodium salt (Orion Corporation, Finland). The biological activity of the used heparin was 84 IU/mg measured by Factor Xa assay (HEPRN). The first step of the reaction series was a hydrolysis reaction between water and alkoxide. The mol ratio of the silica sol was TEOS:H2O:HNO3=1:15:0.0015 and TEOS:H2O:CH3COOH=1:15:0.026, respectively. Modification of the nitric acid catalyzed sol was carried out by co-hydrolysis of TEOS with the following organomodified (i.e. alkylsubstituted) alkoxysilanes: dimethyldiethoxysilane Me2Si(OEt)2 (DMDES) (Lancaster), methyltriethoxysilane MeSi(OEt)3(METES) (Aldrich) or ethyltriethoxysilane EtSi(OEt)3 (ETES) (Lancaster). For the partial substitution of TEOS, 10 or 25 mol-% organomodified alkoxysilane was used. After the first step, i.e. hydrolysis reaction, pH was raised to 4.54.8 with base (0.1 or 1 M NH4OH) before heparin addition. […] The concentration of heparin in silica sol ranged from 1 wt % to 4 wt % calculated on the sol, corresponding to 6.8–29.2 wt % in the air dried silica xerogel. […]

Regarding heparin, the “biological activity of the used heparin” value stood at 84 IU/mg.
